Results as given in patent US20260053932A1, “COMPOUNDS AND METHODS FOR THE TARGETED DEGRADATION OF ANDROGEN RECEPTOR AND ASSOCIATED METHODS OF USE” (Arvinas Operations, Inc., priority 2020, published 2026).

tested on: androgen receptor (AR) in LNCaP and/or VCaP cells; assay: Androgen Receptor ELISA assay (AR degradation); type: cell-based; details: degradation of AR ELISA in LNCaP and/or VCaP cells; Table 2C; read-out: DC50 Code*
Procedure: Androgen Receptor ELISA Assay. […] The protocols used with VCaP cells are described below.
The cells were grown for a minimum of 3 days.
(2)(i) A 10× stock plate in media was made; (ii) 2.5 μL of the 1000× stock was transferred to a new 10× stock plate (use 12 channel pipet, start at A (DMSO control) work thru H. When 247.5 µL of media was added to this plate, it served as a 10× stock; (iii) made media+1 nM R1881 for making 10× stock plate; (iv) added 247.5 μL of media with 1 nM R1881 to each well of the 10× stock plate, mix.
Then 22 μL of 10× stock was added to cells and incubated for 5 hours. […] Media was aspirated, and 100 μL 1× cell lysis buffer/well was added. The cells were placed on a shaker located in a cold room for 10 minutes and shaken at speed 7. The lysate mixture was mix and 20 μL transferred to 100 μl of Diluent in ELISA plate (0.15 μg/ml-[…]). The lysate-diluent mixture was store at 4° C. overnight on a shaker located in a cold room at speed 5 (gentle swirl).
The lysate-diluent mixture was shaken for 30 minutes at 37° C. The mouse AR antibody, anti-mouse antibody, TMB, and STOP solution were allowed to come to room temperature. The 1×ELISA buffer included in kit was made and loaded in reservoir. Media from the plate was discarded, the ELISA plate was tapped hard on paper towel, and washed 4×200 μl ELISA wash buffer using a plate washer for the first three washes and an eight channel aspirator for the fourth wash to more thoroughly aspirate the solution.
Next, 100 μL/well of mouse AR detection Ab was added; the plate was covered and shaken at 37° C. for 1 hour; media was discarded from the plates, the plates tapped on a paper towel and washed four times with 200 μL ELISA wash buffer with a plate washer for the first three washes and an eight channel aspirator for the fourth wash; 100 μL/well of anti-mouse—HRP conjugated Ab (comes with the kit) was added; the plates was cover and shaken at 37° C. for 30 minutes; the TMB reagent was allowed to come to room temperature; the media from the plate was discarded, the plates tapped on paper towel, and washed four times with 200 μL ELISA wash buffer with a plate washer for the first three washes and an eight channel aspirator for the fourth wash; plates were tapped on paper towel; 100 μL TMB was added to each well and the plate shaken for 2 minutes—while watching color. STOP solution (100 μL) was added when light blue color developed.
Data was analyzed and plotted using GraphPad Prism software. Exemplary compounds of Tables 1A, 1B, and 1C were assayed and the data shown below in Tables 2A, 2B, and 2C. DC50 (nM) categories (degradation of AR ELISA in LNCaP and/or VCaP cells) of Tables 2A, 2B, and 2C are as follows: A<1 nM; 1≤B<10 nM; 10≤C<100 nM; D≥100 nM. Dmax (%) categories (degradation of AR ELISA in LNCaP and/or VCaP cells) of Table 2 are as follows: A≥70; 50≤B<70; C<50

DC50, < 1 nM:
COc1cc(O[C@H]2C[C@H](N(C)CC3CCN(c4ccc(C(=O)N[C@H]5C(C)(C)[C@H](Oc6cc(C)c(C#N)c(C)c6)C5(C)C)cc4)CC3)C2)cc2c1C(=O)N(C1CCC(=O)NC1=O)C2=O (mixture of isomers) [compound 191, rac-N-((1r,3r)-3-(4-cyano-3,5-dimethylphenoxy)-2,2,4,4-tetramethylcyclobutyl)-4-(4-((((1r,3r)-3-((2-(2,6-dioxopiperidin-3-yl)-7-methoxy-1,3-dioxoisoindolin-5-yl)oxy)cyclobutyl) (methyl)amino)methyl)piperidin-1-yl)benzamide]
[2H]C([2H])([2H])Oc1cc(O[C@H]2C[C@H](N(CC3CCN(c4cnc(C(=O)N[C@H]5C(C)(C)[C@H](Oc6cc(C)c(C#N)c(C)c6)C5(C)C)cn4)CC3)C(C)C)C2)cc2c1C(=O)N(C1CCC(=O)NC1=O)C2=O (mixture of isomers) [compound 195, rac-N-((1r,3r)-3-(4-cyano-3,5-dimethylphenoxy)-2,2,4,4-tetramethylcyclobutyl)-5-(4-((((1r,3r)-3-((2-(2,6-dioxopiperidin-3-yl)-7-(methoxy-d3)-1,3-dioxoisoindolin-5-yl)oxy)cyclobutyl) (isopropyl)amino)methyl)piperidin-1-yl)pyrazine-2-carboxamide]
COc1cc(O[C@H]2C[C@H](OC3CCN(c4ccc(C(=O)N[C@H]5C(C)(C)[C@H](Oc6cc(C)c(C#N)c(C)c6)C5(C)C)cc4)CC3)C2)cc2c1C(=O)N(C1CCC(=O)NC1=O)C2=O (mixture of isomers) [compound 197, rac-N-((1r,3r)-3-(4-cyano-3,5-dimethylphenoxy)-2,2,4,4-tetramethylcyclobutyl)-4-(4-((1r,3r)-3-((2-(2,6-dioxopiperidin-3-yl)-7-methoxy-1,3-dioxoisoindolin-5-yl)oxy)cyclobutoxy)piperidin-1-yl)benzamide]
CC(C)N(CC1CN(c2ccc(C(=O)N[C@H]3C(C)(C)[C@H](Oc4ccc(C#N)c(Cl)c4)C3(C)C)cc2)C1)[C@H]1C[C@H](Oc2ccc3c(c2)C(=O)N(C2CCC(=O)NC2=O)C3=O)C1 (mixture of isomers) [compound 198, rac-N-((1r,3r)-3-(3-chloro-4-cyanophenoxy)-2,2,4,4-tetramethylcyclobutyl)-4-(3-((((1r,3r)-3-((2-(2,6-dioxopiperidin-3-yl)-1,3-dioxoisoindolin-5-yl)oxy)cyclobutyl) (isopropyl)amino)methyl)azetidin-1-yl)benzamide]
Cc1cc(O[C@H]2C(C)(C)[C@H](NC(=O)c3c(C)nc(N4CCC(CN(C(C)C)[C@H]5C[C@H](Oc6ccc7c(c6)C(=O)N(C6CCC(=O)NC6=O)C7=O)C5)CC4)nc3C)C2(C)C)cc(C)c1C#N (mixture of isomers) [compound 200, rac-N-((1r,3r)-3-(4-cyano-3,5-dimethylphenoxy)-2,2,4,4-tetramethylcyclobutyl)-2-(4-((((1r,3r)-3-((2-(2,6-dioxopiperidin-3-yl)-1,3-dioxoisoindolin-5-yl)oxy)cyclobutyl) (isopropyl)amino)methyl)piperidin-1-yl)-4,6-dimethylpyrimidine-5-carboxamide]
[2H]C([2H])([2H])Oc1cc(O[C@H]2C(C)(C)[C@H](NC(=O)c3cnc(N4CCC(CN(C(C)C)[C@H]5C[C@H](Oc6cc(OC([2H])([2H])[2H])c7c(c6)C(=O)N(C6CCC(=O)NC6=O)C7=O)C5)CC4)cn3)C2(C)C)ccc1C#N (mixture of isomers) [compound 202, rac-N-((1r,3r)-3-(4-cyano-3-(methoxy-d3)phenoxy)-2,2,4,4-tetramethylcyclobutyl)-5-(4-((((1r,3r)-3-((2-(2,6-dioxopiperidin-3-yl)-7-(methoxy-d3)-1,3-dioxoisoindolin-5-yl)oxy)cyclobutyl) (isopropyl)amino)methyl)piperidin-1-yl)pyrazine-2-carboxamide]
[2H]C([2H])([2H])Oc1cc(O[C@H]2C[C@H](N(CC3CCN(c4cnc(C(=O)N[C@H]5C(C)(C)[C@H](Oc6ccc(C#N)c(OC)c6)C5(C)C)cn4)CC3)C(C)C)C2)cc2c1C(=O)N(C1CCC(=O)NC1=O)C2=O (mixture of isomers) [compound 203, rac-N-((1r,3r)-3-(4-cyano-3-methoxyphenoxy)-2,2,4,4-tetramethylcyclobutyl)-5-(4-((((1r,3r)-3-((2-(2,6-dioxopiperidin-3-yl)-7-(methoxy-d3)-1,3-dioxoisoindolin-5-yl)oxy)cyclobutyl) (isopropyl)amino)methyl)piperidin-1-yl)pyrazine-2-carboxamide]
CC(C)N(CC1CCN(c2cnc(C(=O)N[C@H]3C(C)(C)[C@H](Oc4ccc(C#N)c(Cl)c4)C3(C)C)cn2)CC1)[C@H]1C[C@H](Oc2cccc3c2CN(C2CCC(=O)NC2=O)C3=O)C1 (mixture of isomers) [compound 208, rac-N-((1r,3r)-3-(3-chloro-4-cyanophenoxy)-2,2,4,4-tetramethylcyclobutyl)-5-(4-((((1r,3r)-3-((2-(2,6-dioxopiperidin-3-yl)-1-oxoisoindolin-4-yl)oxy)cyclobutyl) (isopropyl)amino)methyl)piperidin-1-yl)pyrazine-2-carboxamide]
COc1cc(O[C@H]2C(C)(C)[C@H](NC(=O)c3c(C)nc(N4CCC(CN(C(C)C)[C@H]5C[C@H](Oc6ccc7c(c6)C(=O)N(C6CCC(=O)NC6=O)C7=O)C5)CC4)nc3C)C2(C)C)ccc1C#N (mixture of isomers) [compound 211, rac-N-((1r,3r)-3-(4-cyano-3-methoxyphenoxy)-2,2,4,4-tetramethylcyclobutyl)-2-(4-((((1r,3r)-3-((2-(2,6-dioxopiperidin-3-yl)-1,3-dioxoisoindolin-5-yl)oxy)cyclobutyl) (isopropyl)amino)methyl)piperidin-1-yl)-4,6-dimethylpyrimidine-5-carboxamide]
Cc1cc(O[C@H]2C(C)(C)[C@H](NC(=O)c3cnc(N4CCC(CN(C(C)C)[C@H]5C[C@H](Oc6ccc7c(c6)C(=O)N(C6CCC(=O)NC6=O)C7)C5)CC4)cn3)C2(C)C)cc(C)c1C#N (mixture of isomers) [compound 212, rac-N-((1r,3r)-3-(4-cyano-3,5-dimethylphenoxy)-2,2,4,4-tetramethylcyclobutyl)-5-(4-((((1r,3r)-3-((2-(2,6-dioxopiperidin-3-yl)-3-oxoisoindolin-5-yl)oxy)cyclobutyl) (isopropyl)amino)methyl)piperidin-1-yl)pyrazine-2-carboxamide]
COc1cc(O[C@H]2C(C)(C)[C@H](NC(=O)c3ccc(N4CC5(CC(CN(C(C)C)[C@H]6C[C@H](Oc7ccc8c(c7)C(=O)N(C7CCC(=O)NC7=O)C8=O)C6)C5)C4)cc3)C2(C)C)ccc1C#N (mixture of isomers) [compound 216, rac-N-((1r,3r)-3-(4-cyano-3-methoxyphenoxy)-2,2,4,4-tetramethylcyclobutyl)-4-(6-((((1r,3r)-3-((2-(2,6-dioxopiperidin-3-yl)-1,3-dioxoisoindolin-5-yl)oxy)cyclobutyl) (isopropyl)amino)methyl)-2-azaspiro[3.3]heptan-2-yl)benzamide]
COc1cc(O[C@H]2C[C@H](N(C)CC3CCN(c4cnc(C(=O)N[C@H]5C(C)(C)[C@H](Oc6cc(C)c(C#N)c(C)c6)C5(C)C)cn4)CC3)C2)cc2c1C(=O)N(C1CCC(=O)NC1=O)C2=O (mixture of isomers) [compound 218, rac-N-((1r,3r)-3-(4-cyano-3,5-dimethylphenoxy)-2,2,4,4-tetramethylcyclobutyl)-5-(4-((((1r,3r)-3-((2-(2,6-dioxopiperidin-3-yl)-7-methoxy-1,3-dioxoisoindolin-5-yl)oxy)cyclobutyl) (methyl)amino)methyl)piperidin-1-yl)pyrazine-2-carboxamide]
COc1cc(O[C@H]2C[C@H](N3CCOC4(CCN(c5ccc(C(=O)N[C@H]6C(C)(C)[C@H](Oc7cc(C)c(C#N)c(C)c7)C6(C)C)cc5)CC4)C3)C2)cc2c1C(=O)N(C1CCC(=O)NC1=O)C2=O (mixture of isomers) [compound 220, rac-N-((1r,3r)-3-(4-cyano-3,5-dimethylphenoxy)-2,2,4,4-tetramethylcyclobutyl)-4-(4-((1r,3r)-3-((2-(2,6-dioxopiperidin-3-yl)-7-methoxy-1,3-dioxoisoindolin-5-yl)oxy)cyclobutyl)-1-oxa-4,9-diazaspiro[5.5]undecan-9-yl)benzamide]
